Assay results as given in patent publication US20090291938A1 (TAKEDA PHARMACEUTICAL COMPANY LIMITED, priority 2007, published 2009).

Tested on: HT29 human colorectal adenocarcinoma cell line
Assay: cell proliferation assay (Cell Titer-Glo luminescent cell viability assay)
Assay type: cell-based
Conditions: HT-29, cell proliferative assay, HT29 cells, 72 hr treatment, values given as ranges, read-out: pIC50 (converted)
How it was run: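 Cells grown in DMEM with 10% FBS and exposed to compounds for 72 h. Viability read by CellTiter-Glo luminescence, expressed as percentage of DMSO-treated cells.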

| IC50 | Compound |
| --- | --- |
| > 10 nM | CCN1CCC(NC(=O)c2ccc(Nc3ncc4c(n3)N(C3CCCCC3)CC3(CC3)C(=O)N4C)c(OC)c2)CC1 [Compound 176, 4-(9′-cyclohexyl-5′-methyl-6′-oxo-5′,6′,8′,9′-tetrahydrospiro[cyclopropane-1,7′-pyrimido[4,5-b][1,4]diazepine]-2′-ylamino)-N-(1-ethylpiperidin-4-yl)-3-methoxybenzamide] |
| 1 to 2.51 nM | COc1cc(C(=O)N[C@H]2CCCNC2)ccc1Nc1ncc2c(n1)N(C1CCCCC1)CC1(CC1)C(=O)N2C [Compound 174, (S)-4-(9′-cyclohexyl-5′-methyl-6′-oxo-5′,6′,8′,9′-tetrahydrospiro[cyclopropane-1,7′-pyrimido[4,5-b][1,4]diazepine]-2′-ylamino)-3-methoxy-N-(piperidin-3-yl)benzamide] |
| 1 to 2.51 nM | C=CC[C@H]1CN(C2CCCC2)c2nc(Nc3ccc(C(=O)N[C@H]4CCCNC4)cc3OC)ncc2N(C)C1=O [Compound 201, 4-((S)-7-allyl-9-cyclopentyl-5-methyl-6-oxo-6,7,8,9-tetrahydro-5H-pyrimido[4,5-b][1,4]diazepin-2-ylamino)-3-methoxy-N-((S)-piperidin-3-yl)benzamide] |
| 1 to 2.51 nM | C=CC[C@H]1CN(C2CCCC2)c2nc(Nc3ccc(C(=O)N[C@H]4CCNC4)cc3OC)ncc2N(C)C1=O [Compound 203, 4-((S)-7-allyl-9-cyclopentyl-5-methyl-6-oxo-6,7,8,9-tetrahydro-5H-pyrimido[4,5-b][1,4]diazepin-2-ylamino)-3-methoxy-N-((S)-pyrrolidin-3-yl)benzamide] |
| 3.16 to 10 nM | CC[C@@]1(C)CN(C2CCCCC2)c2nc(Nc3ccc(C(=O)N[C@@H]4CCCNC4)cc3OC)ncc2N(C)C1=O [Compound 148, 4-((S)-9-cyclohexyl-7-ethyl-5,7-dimethyl-6-oxo-6,7,8,9-tetrahydro-5H-pyrimido[4,5-b][1,4]diazepin-2-ylamino)-3-methoxy-N-((R)-piperidin-3-yl)benzamide] |

Further lines, the compound ahead of its results:

| Compound | IC50 |
| --- | --- |
| C=C[C@@]1(C)CN(C2CCCC2)c2nc(Nc3ccc(C(=O)NC4CCN(C)CC4)cc3OC)ncc2N(C)C1=O [Compound 241, (S)-4-(9-cyclopentyl-5,7-dimethyl-6-oxo-7-vinyl-6,7,8,9-tetrahydro-5H-pyrimido[4,5-b][1,4]diazepin-2-ylamino)-3-methoxy-N-(1-methylpiperidin-4-yl)benzamide] | > 10 nM |
| COc1cc(C(=O)NCc2cccnc2)ccc1Nc1ncc2c(n1)N(C1CCCC1)CCC(=O)N2C [Compound 70, 4-(9-cyclopentyl-5-methyl-6-oxo-6,7,8,9-tetrahydro-5H-pyrimido[4,5-b][1,4]diazepin-2-ylamino)-3-methoxy-N-(pyridin-3-ylmethyl)benzamide] | 3.16 to 10 nM |
| COc1cc(C(=O)NCCN2CCCC2=O)ccc1Nc1ncc2c(n1)N(C1CCCC1)CCC(=O)N2C [Compound 46, 4-(9-cyclopentyl-5-methyl-6-oxo-6,7,8,9-tetrahydro-5H-pyrimido[4,5-b][1,4]diazepin-2-ylamino)-3-methoxy-N-(2-(2-oxopyrrolidin-1-yl)ethyl)benzamide] | 3.16 to 10 nM |
| CNC(=O)c1ccc(Nc2ncc3c(n2)N(C2CCCC2)CCC(=O)N3C)c(OC)c1 [Compound 10, 4-[(9-cyclopentyl-5-methyl-6-oxo-6,7,8,9-tetrahydro-5H-pyrimido[4,5-b][1,4]diazepin-2-yl)amino]-3-methoxy-N-methylbenzamide] | 3.16 to 10 nM |
| CCCOc1cc(C(=O)NC2CCN(C)CC2)ccc1Nc1ncc2c(n1)N(C1CCCC1)CC(C)(C)C(=O)N2C [Compound 124, 4-(9-cyclopentyl-5,7,7-trimethyl-6-oxo-6,7,8,9-tetrahydro-5H-pyrimido[4,5-b][1,4]diazepin-2-ylamino)-N-(1-methylpiperidin-4-yl)-3-propoxybenzamide] | > 10 nM |
